Results reported in US6620833B1, “Substituted benzimidazoles, production and use thereof as agents for combating parasitic protozoas” (Bayer Aktiengesellschaft, priority 1998, dated 2003).

Assays:
Format in all cases: in vivo
[1] = tested on: Eimeria acervulina; experiment: Cage experiment on coccidiosis/chicks, E. acervulina readout; conditions: first symbol of cell
[2] = tested on: Eimeria maxima; experiment: Cage experiment on coccidiosis/chicks, E. maxima readout; conditions: second symbol of cell
[3] = tested on: Eimeria tenella; experiment: Cage experiment on coccidiosis/chicks, E. tenella readout; conditions: third symbol of cell
Further: key: 2=full action; 1=slight action; 0=inactive; D=death.

COC(=O)N(C)Cn1c(C(F)(F)F)nc2c(Br)cc3c(c21)OC(F)(F)C(F)(F)O3 [Ex. 2] was tested, and the “Efficacy against Eimeria acervulina” value ([1]; Table 4, dose 2.5 ppm) was 1, the “Efficacy against Eimeria acervulina” value ([1]; Table 4, dose 5 ppm) was 2 and the “Efficacy against Eimeria acervulina” value ([1]; Table 4, dose 10 ppm) was “D D D”. The “Efficacy against Eimeria maxima” value ([2]; Table 4, dose 2.5 ppm) was 2, the “Efficacy against Eimeria maxima” value ([2]; Table 4, dose 5 ppm) was 2 and the “Efficacy against Eimeria maxima” value ([2]; Table 4, dose 10 ppm) was “D D D”. The “Efficacy against Eimeria tenella” value ([3]; Table 4, dose 2.5 ppm) was 1, the “Efficacy against Eimeria tenella” value ([3]; Table 4, dose 5 ppm) was 2 and the “Efficacy against Eimeria tenella” value ([3]; Table 4, dose 10 ppm) was “D D D”.

For COC(=O)N(C)Cn1c(C(F)(F)F)nc2c(Cl)cc3c(c21)OC(F)(F)C(F)(F)O3 [Ex. 3], the “Efficacy against Eimeria acervulina” value ([1]; Table 4, dose 2.5 ppm) was 0, the “Efficacy against Eimeria acervulina” value ([1]; Table 4, dose 5 ppm) was 2 and the “Efficacy against Eimeria acervulina” value ([1]; Table 4, dose 10 ppm) was 2. For the same molecule, the “Efficacy against Eimeria maxima” value ([2]; Table 4, dose 2.5 ppm) was 2, the “Efficacy against Eimeria maxima” value ([2]; Table 4, dose 5 ppm) was 2 and the “Efficacy against Eimeria maxima” value ([2]; Table 4, dose 10 ppm) was 2. For the same molecule, the “Efficacy against Eimeria tenella” value ([3]; Table 4, dose 2.5 ppm) was 1, the “Efficacy against Eimeria tenella” value ([3]; Table 4, dose 5 ppm) was 2 and the “Efficacy against Eimeria tenella” value ([3]; Table 4, dose 10 ppm) was 2.

In the case of CCN(Cn1c(C(F)(F)F)nc2c(Cl)cc3c(c21)OC(F)(F)C(F)(F)O3)C(=O)OC [Ex. 4], the “Efficacy against Eimeria acervulina” value ([1]; Table 4, dose 2.5 ppm) is reported as 1, the “Efficacy against Eimeria acervulina” value ([1]; Table 4, dose 5 ppm) is reported as 1 and the “Efficacy against Eimeria acervulina” value ([1]; Table 4, dose 10 ppm) is reported as 1. The “Efficacy against Eimeria maxima” value ([2]; Table 4, dose 2.5 ppm) was 2, the “Efficacy against Eimeria maxima” value ([2]; Table 4, dose 5 ppm) was 1 and the “Efficacy against Eimeria maxima” value ([2]; Table 4, dose 10 ppm) was 1. The “Efficacy against Eimeria tenella” value ([3]; Table 4, dose 2.5 ppm) was 1, the “Efficacy against Eimeria tenella” value ([3]; Table 4, dose 5 ppm) was 1 and the “Efficacy against Eimeria tenella” value ([3]; Table 4, dose 10 ppm) was 1.

In the case of CCCCN(Cn1c(C(F)(F)F)nc2c(Br)cc3c(c21)OC(F)(F)C(F)(F)O3)C(=O)OCC [Ex. 5], the “Efficacy against Eimeria acervulina” value ([1]; Table 4, dose 2.5 ppm) is reported as 1, the “Efficacy against Eimeria acervulina” value ([1]; Table 4, dose 5 ppm) is reported as 1 and the “Efficacy against Eimeria acervulina” value ([1]; Table 4, dose 10 ppm) is reported as 1. The “Efficacy against Eimeria maxima” value ([2]; Table 4, dose 2.5 ppm) was 2, the “Efficacy against Eimeria maxima” value ([2]; Table 4, dose 5 ppm) was 1 and the “Efficacy against Eimeria maxima” value ([2]; Table 4, dose 10 ppm) was 1. For the same molecule, the “Efficacy against Eimeria tenella” value ([3]; Table 4, dose 2.5 ppm) was 1, the “Efficacy against Eimeria tenella” value ([3]; Table 4, dose 5 ppm) was 1 and the “Efficacy against Eimeria tenella” value ([3]; Table 4, dose 10 ppm) was 2.

CCOC(=O)N(Cn1c(C(F)(F)F)nc2c(Br)cc3c(c21)OC(F)(F)C(F)(F)O3)C(C)C [Ex. 6] was tested, and the “Efficacy against Eimeria acervulina” value ([1]; Table 4, dose 2.5 ppm) was 1, the “Efficacy against Eimeria acervulina” value ([1]; Table 4, dose 5 ppm) was 2 and the “Efficacy against Eimeria acervulina” value ([1]; Table 4, dose 10 ppm) was 2. For the same molecule, the “Efficacy against Eimeria maxima” value ([2]; Table 4, dose 2.5 ppm) was 1, the “Efficacy against Eimeria maxima” value ([2]; Table 4, dose 5 ppm) was 2 and the “Efficacy against Eimeria maxima” value ([2]; Table 4, dose 10 ppm) was 2. The “Efficacy against Eimeria tenella” value ([3]; Table 4, dose 2.5 ppm) was 1, the “Efficacy against Eimeria tenella” value ([3]; Table 4, dose 5 ppm) was 2 and the “Efficacy against Eimeria tenella” value ([3]; Table 4, dose 10 ppm) was 2.

With CCOC(=O)N(Cn1c(C(F)(F)F)nc2c(Cl)cc3c(c21)OC(F)(F)C(F)(F)O3)C(C)C [Ex. 7] the “Efficacy against Eimeria acervulina” value ([1]; Table 4, dose 2.5 ppm) was 2, the “Efficacy against Eimeria acervulina” value ([1]; Table 4, dose 5 ppm) was 2 and the “Efficacy against Eimeria acervulina” value ([1]; Table 4, dose 10 ppm) was 2. The “Efficacy against Eimeria maxima” value ([2]; Table 4, dose 2.5 ppm) was 1, the “Efficacy against Eimeria maxima” value ([2]; Table 4, dose 5 ppm) was 2 and the “Efficacy against Eimeria maxima” value ([2]; Table 4, dose 10 ppm) was 2. The “Efficacy against Eimeria tenella” value ([3]; Table 4, dose 2.5 ppm) was 2, the “Efficacy against Eimeria tenella” value ([3]; Table 4, dose 5 ppm) was 2 and the “Efficacy against Eimeria tenella” value ([3]; Table 4, dose 10 ppm) was 1.

For COC(=O)N(Cn1c(C(F)(F)F)nc2c(Cl)cc3c(c21)OC(F)(F)C(F)(F)O3)c1ccccc1C [Ex. 8], the “Efficacy against Eimeria acervulina” value ([1]; Table 4, dose 2.5 ppm) was 0, the “Efficacy against Eimeria acervulina” value ([1]; Table 4, dose 5 ppm) was 0 and the “Efficacy against Eimeria acervulina” value ([1]; Table 4, dose 10 ppm) was 2. The “Efficacy against Eimeria maxima” value ([2]; Table 4, dose 2.5 ppm) was 0, the “Efficacy against Eimeria maxima” value ([2]; Table 4, dose 5 ppm) was 1 and the “Efficacy against Eimeria maxima” value ([2]; Table 4, dose 10 ppm) was 2. For the same molecule, the “Efficacy against Eimeria tenella” value ([3]; Table 4, dose 2.5 ppm) was 0, the “Efficacy against Eimeria tenella” value ([3]; Table 4, dose 5 ppm) was 1 and the “Efficacy against Eimeria tenella” value ([3]; Table 4, dose 10 ppm) was 2.

With CCOC(=O)N(Cn1c(C(F)(F)F)nc2c(Cl)cc3c(c21)OC(F)(F)C(F)(F)O3)C1CCCCC1 [Ex. 9] the “Efficacy against Eimeria acervulina” value ([1]; Table 4, dose 2.5 ppm) was 0, the “Efficacy against Eimeria acervulina” value ([1]; Table 4, dose 5 ppm) was 2 and the “Efficacy against Eimeria acervulina” value ([1]; Table 4, dose 10 ppm) was 2. For the same molecule, the “Efficacy against Eimeria maxima” value ([2]; Table 4, dose 2.5 ppm) was 1, the “Efficacy against Eimeria maxima” value ([2]; Table 4, dose 5 ppm) was 2 and the “Efficacy against Eimeria maxima” value ([2]; Table 4, dose 10 ppm) was 2. For the same molecule, the “Efficacy against Eimeria tenella” value ([3]; Table 4, dose 2.5 ppm) was 1, the “Efficacy against Eimeria tenella” value ([3]; Table 4, dose 5 ppm) was 1 and the “Efficacy against Eimeria tenella” value ([3]; Table 4, dose 10 ppm) was 2.
